Experimental data reported in patent publication US10894787B2, “Modulators of the GPR119 receptor and the treatment of disorders related thereto” (Arena Pharmaceuticals, Inc., priority 2010, dated 2021).

Assay: Dynamic moisture-sorption (DMS) analysis
Type: physicochemical
Details: at about 90% RH and 25° C.
Experimental: A dynamic moisture-sorption (DMS) study was conducted using a dynamic moisture-sorption analyzer, VTI Corporation, SGA-100. Samples were prepared for DMS analysis by placing 5 mg to 20 mg of a sample in a tared sample holder. The sample was placed on the hang-down wire of the VTI balance. A drying step was run, typically at 40° C. and 0.5-1% RH for 1 h. The isotherm temperature is 25° C. Defined % RH holds typically ranged from 10% RH to 90% RH, with intervals of 10 to 20% RH. A % weight change smaller than 0.010% over 10 min, or up to 2 h, whichever occurred first, was required before continuing to the next % RH hold. The water content of the sample equilibrated as described above was determined at each % RH hold.

With `CN(C)C(=O)c1ccc(Nc2ncnc(N3CCC(c4nc(C(C)(C)F)no4)CC3)c2F)c(F)c1` [Compound 1 (Anhydrous Form), 3-fluoro-4-(5-fluoro-6-(4-(3-(2-fluoropropan-2-yl)-1,2,4-oxadiazol-5-yl)piperidin-1-yl)pyrimidin-4-ylamino)-N,N-dimethylbenzamide] the DMS weight gain was “FIG. 8: Less than about 0.35% weight gain at about 90% RH”.
